The record followed here is patent US8011774B2, “Azo dye, colored composition, heat-sensitive transfer recording ink sheet, heat-sensitive transfer recording method, color toner, inkjet ink and color filter” (Fujifilm Corporation, priority 2006, dated 2011).

Common to all, as to format: physicochemical
A short description of series [1]: Maximum absorption wavelength of absorption spectrum in ethyl acetate solution. The conditions noted are these: 1×10^−6 mol/L, optical path length 10 mm. The procedure:
A mixture of 3.53 g of Intermediate (7a) (0.01 mol), 2.76 g of potassium carbonate (0.02 mol) and dimethylacetamide (15 ml) was stirred at 0° C. To the mixture was gradually dropped 4.23 g (0.03 mol) of methyl iodide. After stirring for 3 hours at room temperature, 50 ml of water was added thereto. After extraction with 50 ml of ethyl acetate, the extracted solution was washed with saturated brine. Then, the extracted solution was concentrated with a rotary evaporator. Thus-obtained residue was purified using a silica gel chromatography (developing solvent: ethyl acetate/hexane=1/4, v/v). A yellow powder of Exemplified compound (7) was obtained. Yield: 3.01 g (82%), Melting Point: 192° C. λmax (ethyl acetate solution) of the Exemplified compound (7) was 442 nm.
Exemplified compounds (1), (5), (8), (9), (10), (13) and (23) were synthesized in the manner described above. In Table 1 shown below, are indicated the maximum absorption wavelength in each of absorption spectra of the thus-obtained Exemplified compounds (1), (5), (8), (9), (10), (13) and (23) in an ethyl acetate solution (Density: 1×10^−6 mol/L, Optical path length: 10 mm) and melting points of these compounds, together with the Exemplified compounds (7) obtained in the Synthesis Examples.

Series [2] is described as follows: Solubility of dye when preparing ink sheet dye-providing layer coating composition. Also on record: key: A: The dye easily dissolves.; B: The dye dissolves.; C: The dye is sparingly soluble, but dissolves. The conditions noted are these: dye 5.5 parts, polyvinylbutyral resin, methyl ethyl ketone/toluene (1/1) coating composition. How it is done: As a support, was used a 6 μm thick polyester film, a back surface of which had been subjected to a heat resistant lubricating processing with a 1 μm thick thermosetting acrylic resin (Lumirror (trade name), a product of Toray). On the front surface of the support, the following dye-providing layer-coating composition was coated by a wire bar coating so that a dry thinness of the dye-providing layer became 1 μm. Thus, Ink sheet 1 was prepared.
Solubility of these dyes contained in these ink sheets were evaluated according to the following three grades;
A: The dye easily dissolves.
C: The dye is sparingly soluble, but dissolves.

Series [3] is described as follows: Deposition of dye with lapse of time in the ink sheet, examined by eye. Set-up: key: A: No precipitation is observed.; B: Precipitation is slightly observed.; C: Precipitation is apparently observed. Particulars: deposition of dye with a lapse of time in the ink sheet. From the text:
Further, deposition of dyes with a lapse of time in the ink sheet was examined by a native eye, thereby to evaluate based on the following three grades:
A: No precipitation is observed.
B: Precipitation is slightly observed.
C: Precipitation is apparently observed.

Series [4] in a line: Light stability (light resistance) of transferred dye image under Xenon light. The conditions noted are these: Xenon light 17,000 lux, 7 days; residual ratio of Status A reflection density 1.0. The procedure:
Next, each of the thus image-recorded thermal transfer image-receiving material was exposed to Xenon light (17,000 lux) for 7 days to examine light stability (light resistance) of the dye image. Status A reflection densities after exposure were measured in the portions indicating status A reflection density of 1.0. A stability of the image was evaluated in terms of a residual ratio (percentage) based on the reflection destiny before exposure according to the following three grades:
A: 80% or more, but 100% or less
B: 60% or more, but […]

Turning to `Cc1nn2nc(C(C)(C)C)c(N=Nc3c(C#N)c(C(C)(C)C)nn3C)c2n1C` [Dye (1)], the Maximum absorption wavelength in series [1] worked out at 434 nm. The Solubility entry in series [2] was “A”. For the same molecule, in series [3], the Precipitation result is reported as “A”. In addition, the Light resistance result in series [4] is “A (80% or more, but 100% or less)”.
Molecule `Cc1nn(C)c2c(N=Nc3c(C#N)c(C(C)(C)C)nn3C)c(C(C)(C)C)nn12` [Dye (7)] had a Maximum absorption wavelength in series [1] of 442 nm. In addition, the Solubility result in series [2] is recorded as “A”. In series [3], the Precipitation result was “A”. Besides, in series [4], the Light resistance entry is listed as “A (80% or more, but 100% or less)”.
Regarding `CCn1nc(C(C)(C)C)c(C#N)c1/N=N/c1c(C(C)(C)C)nn2c(C)nn(CC)c12` [Dye (8)], in series [1], the Maximum absorption wavelength is listed as 441 nm. Also, the Solubility entry in series [2] was “A”. The Precipitation entry in series [3] is listed as “A”. Also, in series [4], the Light resistance result is “A (80% or more, but 100% or less)”.
Turning to `CCc1nn(C)c2c(/N=N/c3c(C#N)c(C(C)(C)C)nn3C)c(C(C)(C)C)nn12` [Dye (9)], the Maximum absorption wavelength in series [1] was 441 nm. In addition, the Solubility result in series [2] was “A”. Besides, the Precipitation result in series [3] is “A”. Also, the Light resistance entry in series [4] is listed as “A (80% or more, but 100% or less)”.
Take `CC(C)c1nn(C)c2c(/N=N/c3c(C#N)c(C(C)(C)C)nn3C)c(C(C)(C)C)nn12` [Dye (10)]: the Maximum absorption wavelength in series [1] was 443 nm. In series [2], the Solubility entry is given as “A”. For the same molecule, in series [3], the Precipitation result was “A”. Further, the Light resistance entry in series [4] is “A (80% or more, but 100% or less)”.
In series [1], `Cc1nsc(/N=N/c2c(C(C)(C)C)nn3c(C(C)C)nn(C)c23)c1C#N` [Dye (13)] returned a Maximum absorption wavelength of 471 nm.
For `Cc1nn(C)c2c(/N=N/c3nc4ccccc4n3C)c(C(C)(C)C)nn12` [Dye (14)], in series [2], the Solubility entry is “A”. Further, the Precipitation result in series [3] is on record as “A”. For the same molecule, in series [4], the Light resistance result is reported as “A (80% or more, but 100% or less)”.
`CCSc1nnc(/N=N/c2c(C(C)(C)C)nn3c(C(C)C)nn(CC)c23)s1` [Dye (23)] came in with a Maximum absorption wavelength in series [1] of 449 nm. In addition, the Solubility result in series [2] is listed as “A”. Further, the Precipitation result in series [3] is recorded as “A”. Moreover, the Light resistance entry in series [4] was “A (80% or more, but 100% or less)”.
`CCSc1nnc(/N=N/c2c(C(C)(C)C)nn3nc(C(C)C)n(C)c23)s1` [Dye (28)]: in series [2], the Solubility entry is given as “A”. In addition, the Precipitation result in series [3] was “A”. The Light resistance entry in series [4] is “A (80% or more, but 100% or less)”.
Regarding `CCSc1nnc(N=Nc2c(C(C)(C)C)nn3c(C(C)C)n[nH]c23)s1` [Dye for Comparison 1, reference compound], in series [2], the Solubility entry is on record as “B”. Besides, in series [3], the Precipitation entry is given as “B”. Besides, in series [4], the Light resistance result is given as “B (60% or more, but less than 100%)”.
Regarding `CCN(CCOc1ccc(C2CCCCC2)cc1)c1ccc(C=C(C#N)C#N)cc1` [Dye for Comparison 3, reference compound], the Solubility entry in series [2] is recorded as “A”. Besides, the Precipitation result in series [3] is “A”. Moreover, the Light resistance entry in series [4] was “C (less than 60%)”.
